The text below walks through data of patent US20050070460A1 (priority 2003, published 2005).

pEC50: −log10 of the molar value. Where only a bound is given, the exact number is not on record here.

Series [1] has as its system humanized, non-lethal influenza virus. The series is described as follows: Viral titers in rats after intranasal pre-infection treatment and influenza challenge. Type of series: in vivo, Fisher 344 rats. Conditions: intranasal administration prior to infection, 24 hours after the infection, compared also to IFN-α pretreatment.
The test system of series [2] is Influenza A/Panama/2007/99 (H3N2).
In series [3] the test system is Influenza A/New Calcdonia/20/99 (H1N1).
The subject of series [4] is Severe acute respiratory syndrome (SARS) coronavirus, strain Urbani.
Series [5] deals with Human coronavirus (HcoV), strain OC43.
The subject of a further series is MDCK cells. The note with it: Influenza A (H1N1) test.
A short description of series [6]: in vitro. The note with it: dog.
Series [7] in a line: in vitro. Conditions: African green monkey.
For series [8], the system named is Influenza A/Panama/2007/99 (H3N2). As to the kind of experiment: microbe, parasite or virus in culture. The note with it: H3N2, MDCK.
The subject of series [9] is Influenza A/New Calcdonia/20/99 (H1N1). The series is described as follows: microbe, parasite or virus in culture. Conditions: H1N1, MDCK.
Series [10] deals with Severe acute respiratory syndrome (SARS) coronavirus, strain Urbani. As to the kind of experiment: microbe, parasite or virus in culture. Conditions: Severe acute respiratory syndrome-related coronavirus, Vero 76, SARS, Vero 76 cells; PBMC supernatant = indirect, IRM in media = direct.
Series [11] concerns Human coronavirus (HcoV), strain OC43. As to the kind of experiment: microbe, parasite or virus in culture. The note with it: unidentified human coronavirus, OC43, BSC-1.

Turning to `CCOCc1nc2c(N)nc3ccccc3c2n1CC(C)(C)NS(C)(=O)=O` [IRM, N-{2-[4-amino-2-(ethoxymethyl)-1H-imidazo[4,5-c]quinolin-1-yl]-1,1-dimethylethyl}methanesulfonamide], the “viral titer present in the lung” value in series [1] is given as “dramatically reduced”. The “viral titer present in the nasal cavity” value in [1] is on record as “dramatically reduced”. The “SI (CC50/EC50)” value is recorded as 0 in series [2], 0 in series [3], 50 in [4] and 0 in series [5]. Also, the “antiviral activity (in words)” value in series [4] is reported as “significant direct activity”. Further, the CC50 in the series on MDCK cells is above 300 µM; in the series “in vitro [6]”, above 300 µM; in “in vitro [7]” it was above 150 µM. The negative logarithm of the EC50 (pEC50) in series [8] is below 3.52; in series [9], below 3.52; in [10], around 5.52; in series [11], below 3.82.

On to `NC(=O)c1ncn([C@@H]2O[C@H](CO)[C@@H](O)[C@H]2O)n1` [Ribavirin, ribavirin, reference compound], for which the “SI (CC50/EC50)” value is on record as above 19 in series [2] and above 32 in series [3]. For the same molecule, the CC50 in the series with MDCK cells and in “in vitro [6]” was above 450 µM throughout. For the same molecule, the negative-log EC50 (pEC50) is 4.62 in [8] and 4.85 in [9].

As a reminder, the pEC50 is the negative decadic logarithm of the EC50, by convention in mol/L.
